Test results reported in patent publication US8901118B2, “Compounds and methods for kinase modulation, and indications therefor” (Plexxikon Inc., priority 2010, dated 2014).

These molecules were tested on BCR-FMS BaF3 cells (assay: Splenomegaly mouse model, BCR-FMS BaF3 cells). Conditions: dosed at 5 mg/kg.
Type: in vivo
Protocol: BaF3 cells are engineered with any of BCR-FMS, BCR-TRK1 or BCR-TRK2 to assess in vivo inhibitory effects of Fms, TrkA or TrkB inhibition, respectively. BaF3 cells are maintained in growth media (RPMI containing 10% FBS, 1% PenStrep, 1% NEAA, and 1% L-Glutamine, supplemented with 5% murine IL-3 and 1 mg/mL G418). Four days prior to start, 2×10^6 cells are inoculated into a T150 vented flask using the growth media and incubated at 37° C. in 5% CO2 for three days. One day prior to start, cells are collected by centrifugation and are suspended in growth media without IL-3. On the day of cell implant, the cells are collected by centrifugation, rinsed 3×20 mL with RPMI, then are suspended in 5.4 mL of media and counted, then adjusted with additional RPMI as needed to give 5×10^7 cells/mL. On day 1, female nu/nu mice at 5-6 weeks of age are injected intravenously with BaF3 cells injected injecting 0.1 mL (5×10^6) cells in the tail vein (mice without cell injected are included as control group). Compound stocks in dimethylsulfoxide are stored at room temperature protected from light. Stocks are diluted prior to dosing, diluting 22 μL of compound stock into 858 μL of diluent (or 50 μL into 1950 μL) to provide vehicle of 1.0% Polysorbate 80, 0.5% hydroxypropyl methyl cellulose, with final dimethylsulfoxide at 2.5% in all dosing suspensions and vehicle control. Dosing suspension is prepared prior to use, mixing by inversion and sonication in a water bath to make a uniform suspension. On days 10-18, mice are treated with vehicle only or the desired level of compound in vehicle, ˜0.2 mL per 25 gm mouse, once a day by oral gavage, or in some instances, twice per day. On day 18, mice are administered a final dose and two hours later a plasma sample is taken. At four hours following the final dose, mice are sacrificed, an additional plasma sample is collected and mouse spleens are removed and weighed. The average spleen weight of vehicle control group mice is compared to the average spleen weight of the test compound mice. Percent spleen growth inhibition is calculated as 100×[(spleen weight vehicle control-spleen weight test compound)/spleen weight vehicle control]. In some instances, the compounds were not tested in all of the assays as indicated by NA in the table below.
In the case of `O=C(c1ccc(Nc2ccc(C3CC3)nc2)nc1F)c1c[nH]c2ncnc(NCC(F)(F)F)c12` [Compound P-4090, [6-[(6-cyclopropyl-3-pyridyl)amino]-2-fluoro-3-pyridyl]-[4-(2,2,2-trifluoroethylamino)-7H-pyrrolo[2,3-d]pyrimidin-5-yl]methanone], the “% spleen growth inhibition, Fms” value is reported as 38%.
In the case of `CCNc1ncnc2[nH]cc(C(=O)c3ccc(Nc4ccc(CC)nc4)nc3F)c12` [Compound P-4123, [4-(ethylamino)-7H-pyrrolo[2,3-d]pyrimidin-5-yl]-[6-[(6-ethyl-3-pyridyl)amino]-2-fluoro-3-pyridyl]methanone], the “% spleen growth inhibition, Fms” value is reported as 14%.

Same assay, conditions: dosed once per day at 10 mg per kg
With `Cc1cnc2[nH]cc(Cc3cnc(Nc4ccc(F)cc4)nc3)c2c1` [Compound P-3010, (4-Fluoro-phenyl)-[5-(5-methyl-1H-pyrrolo[2,3-b]pyridin-3-ylmethyl)-pyrimidin-2-yl]-amine] the “% spleen growth inhibition, Fms” value was 47%.
For `Fc1nc(NC2CCC(F)(F)CC2)ccc1Cc1c[nH]c2ncc(Cl)cc12` [Compound P-3013, [5-(5-Chloro-1H-pyrrolo[2,3-b]pyridin-3-ylmethyl)-6-fluoro-pyridin-2-yl]-(4,4-difluoro-cyclohexyl)-amine], the “% spleen growth inhibition, Fms” value was 48%.
For `O=C(c1ccc(NC2CCC(F)(F)CC2)nc1F)c1c[nH]c2ncnc(NCC(F)(F)F)c12` [Compound P-4061, [6-[(4,4-difluorocyclohexyl)amino]-2-fluoro-3-pyridyl]-[4-(2,2,2-trifluoroethylamino)-7H-pyrrolo[2,3-d]pyrimidin-5-yl]methanone], the “% spleen growth inhibition, Fms” value was 48%.
With `O=C(c1ccc(NC2CCC(F)(F)CC2)nc1F)c1c[nH]c2ncnc(NC3CC3)c12` [Compound P-4062, [4-(cyclopropylamino)-7H-pyrrolo[2,3-d]pyrimidin-5-yl]-[6-[(4,4-difluorocyclohexyl)amino]-2-fluoro-3-pyridyl]methanone] the “% spleen growth inhibition, Fms” value was 76%.
In the case of `COc1ccc(Nc2ccc(C(=O)c3c[nH]c4ncnc(NCC(F)(F)F)c34)c(F)n2)cn1` [Compound P-4084, [2-fluoro-6-[(6-methoxy-3-pyridyl)amino]-3-pyridyl]-[4-(2,2,2-trifluoroethylamino)-7H-pyrrolo[2,3-d]pyrimidin-5-yl]methanone], the “% spleen growth inhibition, Fms” value is reported as 6.2%.
`CNc1ncnc2[nH]cc(C(=O)c3ccc(NC4CCCCC4)nc3Cl)c12` [Compound P-4110, [2-chloro-6-(cyclohexylamino)-3-pyridyl]-[4-(methylamino)-7H-pyrrolo[2,3-d]pyrimidin-5-yl]methanone] was tested, and the “% spleen growth inhibition, Fms” value was 30%.
For `Cc1ccc(Nc2ccc(C(=O)c3c[nH]c4ncnc(NCC(F)(F)F)c34)c(F)n2)cn1` [Compound P-4112, [2-fluoro-6-[(6-methyl-3-pyridyl)amino]-3-pyridyl]-[4-(2,2,2-trifluoroethylamino)-7H-pyrrolo[2,3-d]pyrimidin-5-yl]methanone], the “% spleen growth inhibition, Fms” value was 9.5%.
With `CCc1ccc(Nc2ccc(C(=O)c3c[nH]c4ncnc(NCC(F)(F)F)c34)c(F)n2)cn1` [Compound P-4120, [6-[(6-ethyl-3-pyridyl)amino]-2-fluoro-3-pyridyl]-[4-(2,2,2-trifluoroethylamino)-7H-pyrrolo[2,3-d]pyrimidin-5-yl]methanone] the “% spleen growth inhibition, Fms” value was 37%.
For `CCc1ccc(Nc2ccc(C(=O)c3c[nH]c4ncnc(NC)c34)c(F)n2)cn1` [Compound P-4124, [6-[(6-ethyl-3-pyridyl)amino]-2-fluoro-3-pyridyl]-[4-(methylamino)-7H-pyrrolo[2,3-d]pyrimidin-5-yl]methanone], the “% spleen growth inhibition, Fms” value was 20%.

The molecules below were run against T1, Flt-3 kinase (Homo sapiens, UniProt P36888) (assay: Flt-3 kinase biochemical activity assay (AlphaScreen)). Conditions: 100 μM ATP; read-out: Biochemical Inhibition IC50 Flt3.
T1 sequence (P36888 27-993): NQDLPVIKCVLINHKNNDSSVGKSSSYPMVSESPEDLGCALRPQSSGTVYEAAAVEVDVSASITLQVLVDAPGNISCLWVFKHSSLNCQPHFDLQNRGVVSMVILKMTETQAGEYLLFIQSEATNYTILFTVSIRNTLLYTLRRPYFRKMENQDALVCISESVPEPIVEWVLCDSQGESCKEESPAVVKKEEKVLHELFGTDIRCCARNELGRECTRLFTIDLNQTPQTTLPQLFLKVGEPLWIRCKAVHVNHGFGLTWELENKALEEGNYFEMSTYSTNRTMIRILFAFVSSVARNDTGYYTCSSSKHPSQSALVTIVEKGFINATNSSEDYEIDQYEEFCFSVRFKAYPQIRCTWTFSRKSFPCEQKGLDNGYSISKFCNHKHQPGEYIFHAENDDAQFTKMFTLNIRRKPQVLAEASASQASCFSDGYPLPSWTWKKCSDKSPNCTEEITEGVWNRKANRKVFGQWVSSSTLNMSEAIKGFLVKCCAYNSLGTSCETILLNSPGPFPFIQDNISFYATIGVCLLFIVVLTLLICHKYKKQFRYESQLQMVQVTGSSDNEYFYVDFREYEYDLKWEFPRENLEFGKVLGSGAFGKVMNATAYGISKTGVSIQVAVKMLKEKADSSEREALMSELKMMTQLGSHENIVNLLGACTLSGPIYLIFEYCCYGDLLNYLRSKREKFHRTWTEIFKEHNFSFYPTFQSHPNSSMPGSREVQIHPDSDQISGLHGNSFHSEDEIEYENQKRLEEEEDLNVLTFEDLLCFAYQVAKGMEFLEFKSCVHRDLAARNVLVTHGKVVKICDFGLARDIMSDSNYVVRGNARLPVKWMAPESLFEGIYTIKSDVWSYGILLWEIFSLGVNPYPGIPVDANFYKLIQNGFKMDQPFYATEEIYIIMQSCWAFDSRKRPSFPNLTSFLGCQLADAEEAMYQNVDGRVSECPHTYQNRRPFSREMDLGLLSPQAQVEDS
Protocol: In one assay the biochemical activity IC50 values are determined with respect to inhibition of Flt-3 kinase activity, where inhibition of phosphorylation of a peptide substrate is measured as a function of compound concentration. Compounds to be tested, dissolved in DMSO (1 μL), are added to a white 384-well plate (Costar #3705). Working stocks of Flt-3 kinase (Invitrogen), biotin-(E4Y)10 substrate (Upstate Biotech, Cat#12-440), and ATP (Sigma, Cat#A-3377) are prepared in 25 mM Hepes pH 7.5, 5 mM MgCl2, 5 mM MnCl2, 1 mM DTT, and 0.01% Tween-20. All components are added to the 384-well plate for a final concentration of 1 ng/well Flt-3, 30 nM biotin-(E4Y)10 and 100 μM ATP in a volume of 20 μL. Each sample is at 5% DMSO. The plate is then incubated for 1 hour at room temperature. Just before use, working stocks of donor and acceptor beads from the AlphaScreen PY20 Detection Kit (PerkinElmer, Cat#676601M) are prepared in 25 mM Hepes pH 7.5, pH 7.4, 100 mM EDTA. 0.3% BSA. To stop the reaction, the plate is uncovered in the dark and 5 μL of Donor Beads solution (Streptavidin beads) is added to each well. The plate is incubated at room temperature for 20 minutes. Five microliters of Acceptor Beads solution (PY20 coated beads) are then added to each well. The final concentration of each bead is 10 μg/mL. The plates are incubated at room temperature for 60 minutes. Fluorescence signal is recorded on the Envision reader. Phosphorylated substrate results in binding of the PY20 antibody and association of the donor and acceptor beads such that signal correlates with kinase activity. The signal vs. compound concentration is used to determine the IC50.
`Cc1cnc2[nH]cc(Cc3cnc(Nc4ccc(F)cc4)nc3)c2c1` [Compound P-3010, (4-Fluoro-phenyl)-[5-(5-methyl-1H-pyrrolo[2,3-b]pyridin-3-ylmethyl)-pyrimidin-2-yl]-amine] was tested, and the IC50 was less than 0.1 µM.
For `Clc1ccc(Nc2ncc(Cc3c[nH]c4ncc(Cl)cc34)cn2)cc1` [Compound P-3011, (4-Chloro-phenyl)-[5-(5-chloro-1H-pyrrolo[2,3-b]pyridin-3-ylmethyl)-pyrimidin-2-yl]-amine], the IC50 was less than 0.01 µM.
With `Fc1ccc(Nc2ncc(Cc3c[nH]c4ncc(Cl)cc34)cn2)cc1` [Compound P-3012, [5-(5-Chloro-1H-pyrrolo[2,3-b]pyridin-3-ylmethyl)-pyrimidin-2-yl]-(4-fluoro-phenyl)-amine] the IC50 was less than 0.1 µM.
Work on `Fc1nc(NC2CCC(F)(F)CC2)ccc1Cc1c[nH]c2ncc(Cl)cc12` [Compound P-3013, [5-(5-Chloro-1H-pyrrolo[2,3-b]pyridin-3-ylmethyl)-6-fluoro-pyridin-2-yl]-(4,4-difluoro-cyclohexyl)-amine] yielded an IC50 greater than 1 µM.
`Fc1ccccc1Nc1ncc(Cc2c[nH]c3ncc(Cl)cc23)cn1` [Compound P-3014, [5-(5-Chloro-1H-pyrrolo[2,3-b]pyridin-3-ylmethyl)-pyrimidin-2-yl]-(2-fluoro-phenyl)-amine] gave an IC50 of less than 1 µM.
`Clc1cnc2[nH]cc(Cc3cnc(Nc4ccccc4Cl)nc3)c2c1` [Compound P-3015, (2-Chloro-phenyl)-[5-(5-chloro-1H-pyrrolo[2,3-b]pyridin-3-ylmethyl)-pyrimidin-2-yl]-amine] showed an IC50 of less than 0.1 µM.
